Columns and labels:
[1] = target: Delta-type opioid receptor (Homo sapiens, UniProt P41143); assay: Displacement of [3H]DPDE from delta opioid receptor
[2] = target: Kappa-type opioid receptor (Homo sapiens, UniProt P41145); assay: Displacement of [3H]U-69593 from kappa opioid receptor
Mu-type opioid receptor [3] = target: Mu-type opioid receptor (Rattus norvegicus, UniProt P33535); assay: Displacement of [3H]DAMGO from mu opioid receptor in rat brain homogenate; assay type: tissue-based
[4] = target: Mu-type opioid receptor (Cavia porcellus) (UniProt P97266); assay: Activity at mu opioid receptor in guinea-pig ileum assay; assay type: functional, tissue-based; settings: filed as antagonist
Mu-type opioid receptor [5] = target: Mu-type opioid receptor (Cavia porcellus, UniProt P97266); assay: Antagonist activity against mu opioid receptor in guinea-pig ileum assay; assay type: functional, tissue-based
Sequence of Mu-type opioid receptor (Cavia porcellus, UniProt P97266) (P97266 whole entry): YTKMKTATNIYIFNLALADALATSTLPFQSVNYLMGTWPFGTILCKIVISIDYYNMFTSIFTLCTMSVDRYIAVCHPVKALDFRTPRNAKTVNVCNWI

Sequence of Kappa-type opioid receptor (P41145 whole entry): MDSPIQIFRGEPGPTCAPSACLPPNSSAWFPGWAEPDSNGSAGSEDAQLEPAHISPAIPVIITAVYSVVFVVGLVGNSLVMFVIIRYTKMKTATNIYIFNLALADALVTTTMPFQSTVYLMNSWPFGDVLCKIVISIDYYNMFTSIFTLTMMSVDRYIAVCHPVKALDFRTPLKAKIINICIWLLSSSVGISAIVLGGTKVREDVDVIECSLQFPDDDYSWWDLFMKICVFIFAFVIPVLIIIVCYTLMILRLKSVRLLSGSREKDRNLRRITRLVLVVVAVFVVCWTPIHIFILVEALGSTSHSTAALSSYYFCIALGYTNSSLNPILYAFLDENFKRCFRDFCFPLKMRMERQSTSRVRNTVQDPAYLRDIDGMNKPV
Sequence of Mu-type opioid receptor (Rattus norvegicus, UniProt P33535) (P33535 whole entry): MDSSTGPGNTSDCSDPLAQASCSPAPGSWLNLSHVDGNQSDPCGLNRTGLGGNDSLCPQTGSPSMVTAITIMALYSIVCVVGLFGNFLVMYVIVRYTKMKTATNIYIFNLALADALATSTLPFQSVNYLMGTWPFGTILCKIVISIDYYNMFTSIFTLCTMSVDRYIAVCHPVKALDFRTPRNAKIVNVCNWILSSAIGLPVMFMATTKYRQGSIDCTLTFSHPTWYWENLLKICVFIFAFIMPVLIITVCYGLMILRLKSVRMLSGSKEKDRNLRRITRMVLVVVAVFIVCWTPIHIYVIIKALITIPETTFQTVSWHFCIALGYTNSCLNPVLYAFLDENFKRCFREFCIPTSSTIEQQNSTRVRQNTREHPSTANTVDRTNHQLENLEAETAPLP
Sequence of Delta-type opioid receptor (P41143 whole entry): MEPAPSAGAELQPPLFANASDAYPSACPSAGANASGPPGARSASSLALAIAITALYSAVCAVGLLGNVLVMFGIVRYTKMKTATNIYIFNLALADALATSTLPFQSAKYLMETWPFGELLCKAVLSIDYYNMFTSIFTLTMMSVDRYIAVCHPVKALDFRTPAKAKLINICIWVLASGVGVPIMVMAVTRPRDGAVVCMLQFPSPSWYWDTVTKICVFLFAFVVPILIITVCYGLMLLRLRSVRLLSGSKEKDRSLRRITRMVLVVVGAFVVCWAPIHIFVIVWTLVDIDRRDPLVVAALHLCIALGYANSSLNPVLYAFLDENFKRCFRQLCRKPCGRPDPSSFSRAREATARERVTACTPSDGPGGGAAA
Sequence of Mu-type opioid receptor (Cavia porcellus) (P97266 whole entry): as the sequence (P97266 whole entry) above

SMILES | IC50 [1] | IC50 [2] | IC50 (Mu-type opioid receptor [3]) | Activity [4] | IC50 (Mu-type opioid receptor [5])
CN[C@@H](Cc1ccc(O)cc1)CN(C)[C@H](CNCc1ccccc1)Cc1ccc(O)cc1 | 3.97 µM | 3.85 µM |  |  | 
CNC[C@H](Cc1ccc(O)cc1)N(Cc1ccccc1)C[C@@H](N)Cc1ccc(O)cc1 | 35.6 µM | 14.4 µM | 0.882 µM |  | 
CNC[C@H](Cc1ccccc1)N(C)C[C@H](Cc1ccc(O)cc1)N(C)C[C@H](Cc1ccc(O)cc1)N(C)C | 4.89 µM | 1.05 µM | 0.0005 µM | Antagonist | 
CN(C)[C@@H](Cc1ccc(O)cc1)CN(C)[C@H](CNCc1ccccc1)Cc1ccc(O)cc1 | 8.26 µM | 2.36 µM | 0.038 µM |  | 
CCNC[C@@H]1CCCN1C[C@H](Cc1ccccc1)N(CC)C[C@H](Cc1ccc(O)cc1)N(CC)C[C@@H](N)Cc1ccc(O)cc1 |  |  |  |  | 0.045 µM
CN(C)[C@H](CN[C@H](CN)Cc1ccc(O)cc1)Cc1ccc(O)cc1 | 17.9 µM | 22.6 µM | 0.262 µM |  | 
CNC[C@@H]1CCCN1C[C@H](Cc1ccccc1)N(C)C[C@H](Cc1ccc(O)cc1)N(C)C[C@@H](N)Cc1ccc(O)cc1 |  |  |  | Antagonist | 0.013 µM
CNC[C@@H](Cc1ccccc1)N(C)C[C@@H](Cc1ccc(O)cc1)N(C)C[C@@H](Cc1ccc(O)cc1)N(C)C | 4.97 µM | 8.76 µM | 0.835 µM | Antagonist | 
CN(C[C@@H](N)Cc1ccc(O)cc1)[C@H](CNCc1ccccc1)Cc1ccc(O)cc1 | 10.2 µM | 4.14 µM | 0.01 µM |  | 
CNC[C@@H](Cc1ccccc1)N(C)C[C@H](Cc1ccc(O)cc1)N(C)C[C@@H](Cc1ccc(O)cc1)N(C)C | 11.3 µM | 15.6 µM | 0.958 µM | Antagonist | 
CNC[C@H](Cc1ccccc1)N(C)C[C@@H](Cc1ccc(O)cc1)N(C)C[C@@H](N)Cc1ccc(O)cc1 | 48.2 µM | 22.5 µM | 0.339 µM | Antagonist | 
NC[C@H](Cc1ccc(O)cc1)NC[C@@H](N)Cc1ccc(O)cc1 |  | 32.2 µM | 6.04 µM |  | 
N[C@@H](Cc1ccc(O)cc1)CN(Cc1ccccc1)[C@@H](Cc1ccc(O)cc1)CN(Cc1ccccc1)[C@@H](Cc1ccccc1)CN1CCC[C@H]1CNCc1ccccc1 |  |  |  |  | 4.46 µM
CNC[C@@H]1CCCN1C[C@H](Cc1ccccc1)N(C)C[C@H](Cc1ccc(O)cc1)N(C)C[C@H](Cc1ccc(O)cc1)NC |  |  |  |  | 0.002 µM
CN[C@H](CN[C@H](CN)Cc1ccc(O)cc1)Cc1ccc(O)cc1 | 10.9 µM | 9.67 µM | 0.111 µM |  | 
CNC[C@@H]1CCCN1C[C@H](Cc1ccccc1)N(C)C[C@H](Cc1ccc(O)cc1)N(C)C[C@H](Cc1ccc(O)cc1)N(C)C |  |  |  |  | 0.008 µM
CNC[C@H](Cc1ccc(O)cc1)N(Cc1ccccc1)C[C@H](Cc1ccc(O)cc1)NC | 10.2 µM | 11.1 µM | 1.21 µM |  | 

SMILES | IC50 [1] | IC50 [2] | IC50 (Mu-type opioid receptor [3]) | Activity [4] | IC50 (Mu-type opioid receptor [5])
CNC[C@@H](Cc1ccccc1)N(C)C[C@H](Cc1ccc(O)cc1)N(C)C[C@@H](N)Cc1ccc(O)cc1 | 8.53 µM | 1.45 µM | 0.037 µM | Antagonist | 
CNC[C@H](Cc1ccc(O)cc1)N(Cc1ccccc1)C[C@H](Cc1ccc(O)cc1)N(C)C | 56.7 µM | 10.6 µM | 1.28 µM |  | 
CCN[C@H](CN[C@H](CN[C@@H](Cc1ccccc1)CN1CCC[C@H]1CN[C@@H](CN1CCC[C@H]1CN)[C@@H](C)O)Cc1ccc(O)cc1)Cc1ccc(O)cc1 |  |  | 0.015 µM |  | 
CCN[C@H](CN[C@H](CN[C@H](CN[C@H](CN[C@@H](Cc1ccc(O)cc1)CN1CCC[C@H]1CN)Cc1ccccc1)Cc1ccc(O)cc1)Cc1ccc(O)cc1)Cc1ccc(O)cc1 |  |  | 0.148 µM |  | 
NC[C@@H]1CCCN1C[C@H](Cc1ccccc1)NC[C@H](Cc1ccc(O)cc1)NC[C@@H](N)Cc1ccc(O)cc1 |  |  |  |  | 0.006 µM
CCN[C@H](CN[C@H](CN[C@@H](Cc1ccccc1)CN1CCC[C@H]1CN[C@H](CN[C@H](CN)CO)Cc1ccc(O)cc1)Cc1ccc(O)cc1)Cc1ccc(O)cc1 (stereo in doubt) |  |  | 0.067 µM |  | 
CNC[C@@H](Cc1ccccc1)N(C)C[C@@H](Cc1ccc(O)cc1)N(C)C[C@H](Cc1ccc(O)cc1)N(C)C | 17 µM | 22.4 µM | 0.876 µM | Antagonist | 
N[C@@H](Cc1ccc(O)cc1)CN(Cc1ccc2ccccc2c1)[C@@H](Cc1ccc(O)cc1)CN(Cc1ccc2ccccc2c1)[C@@H](Cc1ccccc1)CN1CCC[C@H]1CNCc1ccc2ccccc2c1 |  |  |  |  | 18.6 µM
CCN[C@H](CN[C@H](CN[C@H](CN[C@H](CN[C@@H](CN[C@H](CN)Cc1ccc(O)cc1)[C@@H](C)O)Cc1ccccc1)Cc1ccc(O)cc1)Cc1ccc(O)cc1)Cc1ccc(O)cc1 |  |  | 0.2 µM |  | 
CCN[C@H](CN[C@H](CN[C@@H](Cc1ccccc1)CN1CCC[C@H]1CN[C@@H](CN[C@H](CN)Cc1ccccc1)[C@@H](C)O)Cc1ccc(O)cc1)Cc1ccc(O)cc1 |  |  | 0.019 µM |  | 
CCN[C@H](CN[C@H](CN[C@H](CN[C@H](CN[C@@H](Cc1ccc(O)cc1)CN1CCC[C@H]1CN)Cc1ccccc1)Cc1ccccc1)Cc1ccc(O)cc1)Cc1ccc(O)cc1 |  |  | 0.048 µM |  | 
CNC[C@H](Cc1ccccc1)N(C)C[C@@H](Cc1ccc(O)cc1)N(C)C[C@@H](Cc1ccc(O)cc1)N(C)C | 17.8 µM | 6.06 µM | 1.5 µM | Antagonist | 
CCN[C@H](CN[C@H](CN[C@@H](Cc1ccc(O)cc1)CN1CCC[C@H]1CN)Cc1ccc(O)cc1)Cc1ccc(O)cc1 |  |  | 0.013 µM |  | 
CCN[C@H](CN[C@H](CN[C@H](CN[C@H](CN[C@@H](CN[C@@H](CN)CO)[C@@H](C)O)Cc1ccccc1)Cc1ccccc1)Cc1ccc(O)cc1)Cc1ccc(O)cc1 |  |  | 0.09 µM |  | 
CCN[C@H](CN[C@H](CN[C@H](CN[C@H](CN)Cc1ccc(O)cc1)Cc1ccc(O)cc1)Cc1ccc(O)cc1)Cc1ccc(O)cc1 |  |  | 0.096 µM |  | 
CNC[C@H](Cc1ccccc1)N(C)C[C@H](Cc1ccc(O)cc1)N(C)C[C@@H](Cc1ccc(O)cc1)N(C)C | 9.05 µM | 10.5 µM | 0.662 µM | Antagonist | 
